Laboratory results as given in patent US10736859B2, “Eutectic formulations of cyclobenzaprine hydrochloride and amitriptyline hydrochloride” (Tonix Pharma Holdings Limited, priority 2013, dated 2020).

What was measured:
[1] = DSC, FT-IR/ATR and XRPD compatibility of Cyclobenzaprine HCl with additional excipients, mixed (A) and milled (B) 1:1 mixtures (Example 2); format: physicochemical; settings: DSC; for Interactions between Cyclobenzaprine HCl and excipients, Mixture 1:1 (mixed): mixture A, mechanical mixing only; for Interactions between Cyclobenzaprine HCl and excipients, Mixture 1:1 (milled): mixture B, ground in agate mortar
Protocol: As described above, thermal analytical techniques were further used to assess the compatibility of a drug product (tablet) containing Cyclobenzaprine HCl (API). The compatibility assessment was carried out between the API and additional excipients in a 1:1 ratio. The 1:1 API-excipient mixtures were formed in two different ways: first, by mixing only, and second, by strong milling in an agate mortar. The thermal behavior recorded in the two different mixtures were compared with those of the single components. On the basis of thermal events recorded for each component and for the mixtures, the analyses were carried out by investigating the meanings of the peaks recorded by differential scanning calorimetry (DSC) in mixtures between the API and the excipients. Furthermore, in order to define the nature of the interaction, the Fourier Transformate Infra Red Spectroscopy with Total Attenuated Reflectance (FT-IR/ATR) and X-ray powder diffraction (XRPD) of some samples (API, excipient, and mixed and milled mixtures) was carried out and compared.
Aliquots of API and each excipient were weighed in a ratio of 1:1 and ground in an agate mortar. Then, the homogeneous mixtures were analyzed. These sample mixtures were labeled “B”, while the mechanical-only mixtures were labeled “A.”
The DSC heating curves were obtained by TA 821 DSC Mettler instrument under the following conditions: • Heating rate: 10° C./min • Ambient: Nitrogen 30 mL/min • Sample holder: normal open aluminum pan • Temperature range: from 25° C. to 250° C. • Instrument calibration: Indium sample purity 99.999% Fourier Transformate Infra Red Spectroscopy with Total Attenuated Reflectance (FT-IR/ATR)
The FT-IR spectra were collected with a Perkin Elmer spectrum Two instrument with air as background and 4 cm^−1 resolution.
X-ray powder diffraction (XRPD) tests were performed with the ULTIMA IV instrument (Rigaku), laying the sample on a static sample holder. The X-ray focusing slit has a variable width, interlocked with the q value. The X-ray tube has a Copper target, with a current intensity of 40 mA and a voltage of 40 kV. Radiation was generated by the Cockcroft-Walton method, and was constituted by Kα1 (1.540562 Å) and Kα2 (1.544398 Å). The analytical conditions were: • Fixed Time; sampling width 0.02 deg, scanning rate 1.3 s/step, 2 q range 3.35 deg and sample holder; amorphous glass equiangular 9200/2G, 0.2 mm deep. The sample was pressed with a glass plate.

[2] = XRPD of binary Cyclobenzaprine HCl/mannitol mixtures (Example 3); format: physicochemical; settings: Cyclobenzaprine HCl/mannitol mixtures 30, 50, 65, 75 and 90% API, no thermal treatment
Protocol: In order to confirm the eutectic formation and to characterize its physical properties, several binary mixtures at different ratios of API-excipient were prepared and analyzed by DSC and by X-ray powder diffraction (XRPD). The mixtures were obtained by gently milling in agate mortar of micronized Cyclobenzaprine HCl and mannitol, in order to obtain homogeneous distribution of the particles. For each DSC heating curve, the onset temperature and the enthalpy were evaluated both for the eutectic contribute and for the excess of component. The recorded values were plotted and a phase diagram between the two components was obtained with a characteristic profile of phase diagrams of eutectic mixtures.
Mixtures also were investigated by XRPD and compared with the patterns of pure components. […] The XRPD patterns obtained in the mixtures, compared with pure components, were plotted in order to confirm the linearity of the peak intensities (cpf) of mannitol and Cyclobenzaprine HCl, and a proportional peak height at characteristic 2 theta angles.
X-ray powder diffraction (XRPD) tests were performed with a ULTIMA IV (Rigaku) instrument, laying the sample on a static sample holder. […] The radiation generated by the Cockcroft-Walton method is constituted by Kα1 (1.540562 Å) and Kα2 (1.544398 Å). […]

OC[C@@H](O)[C@@H](O)[C@H](O)[C@H](O)CO [Mannitol]
Interactions between Cyclobenzaprine HCl and excipients, Mixture 1:1 (mixed) [1]: Eutectic
Interactions between Cyclobenzaprine HCl and excipients, Mixture 1:1 (mixed) ([1]; listed as mannitol): physical complex interaction peak (eutectic)
Interactions between Cyclobenzaprine HCl and excipients, Mixture 1:1 (milled) [1]: Eutectic
Interactions between Cyclobenzaprine HCl and excipients, Mixture 1:1 (milled) ([1]; listed as mannitol): physical complex interaction peak (eutectic)
Adduct formation by XRPD [2]: no adduct formation, only a physical eutectic formation
